The values below come from patent US20230119068A1, “METHODS FOR RAPID SYNTHESIS OF PYRANOANTHOCYANINS” (Ohio State Innovation Foundation, priority 2020, published 2023).

The subject of data set [1] is E. coli, S. aureus and B. cereus, and LAB. The following applies: compared with CA and FA; cited from earlier work.
Data set [2] is described as follows: Color expression of cis and trans isomers of acylated delphinidin at different pH. Type of data set: physicochemical. The conditions noted are these: for color expression: pH 4. The protocol:
Delphinidin-3-(p-coumaroyl)-rutinoside-5-glucoside was extracted from Chinese eggplants, semi-purified and taken to 400 mg/L in methanol. Extract aliquots were placed in sealed quartz cuvettes, with the clear side facing up, and irradiated with different light sources (sunlight, D65 lamp, and UV chamber at 365 nm) for up to 112 hrs. Pigment isomerization was monitored over time on a uHPLC-PDA-MS/MS, using a pentafluorophenyl column and positive electrospray ionization on a triple quadrupole. Cis and trans-delphinidin-derivatives were isolated to compare their color stability and strength. Color was measured on a ColorQuest XE spectrophotometer, using 10° observer angle, illuminant D65, and total transmittance. Data was collected in triplicates and analyzed by two-way ANOVA.

For the molecule `O=C(O)/C=C/c1ccc(O)cc1` [pCA, p-coumaric acid], the antibacterial activity entry in data set [1] was “stronger antibacterial activity”. As for “Delphinidin-3-(p-coumaroyl)-rutinoside-5-glucoside [cis-delphinidin]”, the color expression result in data set [2] is recorded as “noticeable color”. In data set [2] (pH 5), the color intensity entry is “greater color intensity than the trans-isomer”. As to “Delphinidin-3-(p-coumaroyl)-rutinoside-5-glucoside [trans-delphinidin]”, the color expression entry in data set [2] was “bleached completely”.
